{
  "source": "patent US7423015B1",
  "about": "“Antihelminthic drugs as a treatment for hyperproliferative diseases” (Board of Regents, The University of Texas System, priority 2001, dated 2008)",
  "key": {"[1]": {"test_system": "H460 cells", "test": "Induction of apoptosis in H460 (Hoechst 33342, TUNEL, TdT FACS)", "type": "cell-based, human", "protocol": "Cells were seeded onto chamber slides and treated with various reagents, after which cell monolayers were washed twice with ice-cold PBS (pH 7.4). Thereafter, cells were fixed for 5 min at 20° C. in 10% formalin. The washing step with PBS was then repeated once. To stain the nuclei, the cells were incubated for 10 min with 10 μg/ml of Hoechst 33342 and then washed with PBS. The coverslips with the stained cells were mounted in 80% glycerol in PBS containing 1 mg/ml P-phenylenediamine and examined with a Nikon epifluorescence microscope.\nApoptotic assay was done using M30 CytoDEATH apoptotic cell death assay kit (Boehringer Mannnheim). Cells were grown on chamber slides, control and benzimidazole treated cells were stained with Mouse monoclonal antibody (clone M30) as per manufacturer's instructions. […] Flow cytometry was carried out in a fluorescence-activated cell sorter (Epics Elite; Coulter, Inc., Hialeah, Fla.).\nThe inventors tested the effect of BZ treatment on the human NSCLC cell line H460. […] Chromatin condensation was noted under a fluorescence microscope at 24 h after treatment, by staining the nuclei with Hoechst 33342 fluorescent dye. […] Gross morphological changes associated with a loss of viability were observed by 24 hr post-treatment, whereas signs of apoptosis, detected by DNA staining and TUNEL assays, became apparent by 24 hr after drug treatment."}, "[2]": {"test_system": "p53, p21, MDM2, Bcl-2, Cyclin A, Cyclin D, Cdc 2, Bcl-XL, Bax, Rb and Cdk-2", "test": "Western blot of proteins of apoptotic pathways in H460 whole-cell extracts", "type": "cell-based, human", "conditions": "0.05 μg/ml for 24 hr", "protocol": "Cells were grown in 6-cm dishes, cultured, and treated as described above. To prepare the whole-cell lysates, the medium was removed and cells were washed twice with ice-cold Tris-buffered saline (TBS) (150 mM NaCl, 10 mM Tris; pH 7.6) and lysed with 0.5 ml of lysis buffer (10 mM Tris, 150 mM NaCl, 1% Triton X-100, 5 mM EDTA, 25 mM glycerphosphate, 1 mM phenylmethylsulphonyl fluoride (PMSF), 2 mM benzamidine, […], and 1 mM sodium orthovanadate) for 15 min. The lysed cells were then transferred to 1.5 ml microtubes, centrifuged at 15,000×g for 10 min at 4° C., and the supernatants collected mixed with Laemmli's sample buffer and subjected to western blot analysis as described elsewhere (Nare et al., 1994). Blots were probed with anti-p53 monoclonal antibody Bp53-12 (Santa Cruz Biotechnology, Inc.) and the immunocomplex was detected by the Enhanced Chemiluminescence kit according to the manufacturer's directions (Amersham).\nTo rule out the possibility that FZ and MZ have an effect on other proteins known to have a role in various apoptotic pathways, the inventors evaluated the effect of these drugs on a panel of such proteins. […] Specifically, the levels of these proteins were evaluated by Western blot analyses before and after exposure to 0.05 μg/ml FZ or MZ for 24 hr using whole-cell extracts. […] The protein level of the phosphorylated form of Rb also remained unchanged after treatment."}, "[3]": {"test_system": "Ad-luciferase transgene expression", "test": "Ad-luciferase transgene expression with or without MZ", "type": "cell-based", "conditions": "six cell lines, MZ at 50 ng/ml, 48 hours", "protocol": "FIG. 8. Expression of Ad-luciferase in H1299 cells with and without MZ. H1299 cells were treated with media (UT) or Ad-luciferase at increasing multiplicities of infection, with or without MZ at 50 ng/ml. Forty-eight hours later, cells were harvested and luciferase activity assayed.\nFIG. 9. Expression of Ad-luciferase in A549 cells with and without MZ. A549 cells were plated in 6-well dishes and either treated with media (UT) or Ad-luciferase at increasing multiplicities of infection, with or without MZ at 50 ng/ml. Forty-eight hours later, cells were harvested and luciferase activity assayed.\nNext, a series of six cell lines were transfected with Ad-luciferase at increasing multiplicities of infection, with or without MZ at 50 ng/ml."}, "[4]": {"test_system": "breast, ovarian and colon carcinoma and osteosarcoma", "test": "In vitro proliferation assay with MZ", "type": "cell-based", "conditions": "Homo sapiens"}, "[5]": {"test_system": "H460 NSCLC cells", "test": "Cell cycle profiles by FACS, MZ and vinorelbine", "type": "cell-based, human", "protocol": "FIG. 10. MZ Enhances activity of anti-mictotic drugs in H460 NSCLC cells. H460 cells were treated with low dose of MZ or Vinorelbine. Cell cycle profiles indicating G1/S G2-Mphases were analyzed by FACS.\nThe doses of MZ and vinorelbine were chosen to be “sub-therapeutic”. […] Thus, in H460 NSCLC cells mebendazole enhances the activity of anti-mitotic drugs."}, "[6]": {"test_system": "H460 NSCLC cell lines resistant to taxol or vinorelbine", "test": "Cell death of microtubule drug resistant cells", "type": "cell-based, human", "conditions": "MZ 0.5 μM, 48 h time point", "protocol": "The inventors have developed H460 NSCLC cell lines that are resistant to the microtubule drugs: taxol (7 nM) or vinorelbine (9 nM). These cell lines show a marked cross resistance to each other. For example Taxol resistant cells show resistance to Vinorelbine mediated cell death. […] Thus, MZ can be effectively used for killing multi-drug resistant (MDR) cells in a clinical setting."}},
  "data": [
    {"smiles": "COC(=O)Nc1nc2ccc(Sc3ccccc3)cc2[nH]1", "note": "[Fenbendazole, methy 5-(phenylthio)-2-benzimidazole-2-carbamate]", "values": [
      {"measurement": "apoptotic effect on H460 cells", "setting": "[1]", "value": "apoptotic effect"},
      {"measurement": "levels of Bcl-2, Cyclin A, Cyclin D, Cdc 2, Bcl-XL, Bax, Rb and Cdk-2", "setting": "[2]", "value": "no changes"},
      {"measurement": "levels of nuclear p53, p21 and MDM2", "setting": "[2]", "value": "enhanced"}
    ]},
    {"smiles": "COC(=O)Nc1nc2ccc(C(=O)c3ccccc3)cc2[nH]1", "note": "[Mebendazole, Methyl 5-benzoylbenzimidazole-2-carbamate]", "values": [
      {"measurement": "transgene expression", "setting": "[3]", "value": "significant increases"},
      {"measurement": "IC50", "setting": "[4]", "value": "100 to 800", "unit": "nM"},
      {"measurement": "apoptotic effect on H460 cells", "setting": "[1]", "value": "apoptotic effect"},
      {"measurement": "levels of Bcl-2, Cyclin A, Cyclin D, Cdc 2, Bcl-XL, Bax, Rb and Cdk-2", "setting": "[2]", "value": "no changes"},
      {"measurement": "levels of nuclear p53, p21 and MDM2", "setting": "[2]", "value": "enhanced"},
      {"measurement": "apoptosis (sub-G0 cells) under combination of MZ and vinorelbine", "setting": "[5]; 24-48 hr cultures", "value": "pronounced apoptosis"},
      {"measurement": "interaction of MZ combined with Vinorelbine", "setting": "[5]; low doses of both drugs", "value": "synergistic interaction"},
      {"measurement": "apoptosis under monotherapy", "setting": "[5]; sub-therapeutic low dose", "value": "No apoptosis"},
      {"measurement": "cell death", "setting": "[6]", "value": "40-70%"}
    ]}
  ]
}
